Reference: the NIST ThermoML archive (doi:10.1021/je020196d)
Numbers after ± are expanded uncertainties.

Columns and labels:
[1] = 293.15 K; 101.33 kPa; Liquid
[2] = refractive index (Na D-line) (dimensionless); details: 293.15 K; 101.33 kPa; Liquid; Standard Abbe refractometry
[3] = activity coefficient (dimensionless); of the first substance listed, at infinite dilution; xn = mol fraction of the nth substance listed; details: Liquid, x1 = 0

mass density [1] [kg/m3] | refractive index [2] | activity coefficient ([3]; 323.15 K, Chromatography) | activity coefficient ([3]; 333.15 K, Chromatography) | activity coefficient ([3]; 343.15 K, Chromatography) | activity coefficient ([3]; 353.15 K, Chromatography) | activity coefficient ([3]; 363.15 K, Chromatography) | activity coefficient ([3]; 373.1 K, Chromatography) | activity coefficient ([3]; 383.15 K, Chromatography) | activity coefficient ([3]; 393.15 K, Chromatography) | SMILES | other results
878.3 ± 5 | 1.5015 ± 0.0007 | – | – | – | – | – | – | – | – | c1ccccc1 [benzene] | –
– | – | 4.62 ± 0.21 | 4.38 ± 0.2 | 4.26 ± 0.19 | 4.1 ± 0.19 | 3.97 ± 0.18 | 3.92 ± 0.18 | 3.82 ± 0.17 | 3.75 ± 0.17 | c1ccccc1 [benzene] + OCCOCCOCCO | –
– | – | – | 2.99 ± 0.14 | – | 2.73 ± 0.12 | 2.65 ± 0.12 | 2.5 ± 0.11 | 2.41 ± 0.11 | 2.37 ± 0.11 | c1ccccc1 [benzene] + OCCOCCOCCOCCO | activity coefficient ([3]; 403.15 K, Chromatography): 2.27 ± 0.1
867.4 ± 5 | 1.4955 ± 0.0007 | – | – | – | – | – | – | – | – | CCc1ccccc1 [ethylbenzene] | –
– | – | 10.9 ± 0.5 | 10.3 ± 0.47 | 9.73 ± 0.45 | 9.1 ± 0.42 | 8.72 ± 0.4 | 8.39 ± 0.38 | 7.94 ± 0.36 | 7.72 ± 0.35 | CCc1ccccc1 [ethylbenzene] + OCCOCCOCCO | –
– | – | – | 6.39 ± 0.29 | – | 5.63 ± 0.26 | 5.31 ± 0.24 | 5 ± 0.23 | 4.73 ± 0.22 | 4.58 ± 0.21 | CCc1ccccc1 [ethylbenzene] + OCCOCCOCCOCCO | activity coefficient ([3]; 403.15 K, Chromatography): 4.35 ± 0.2
1127.8 ± 5 | 1.4556 ± 0.0007 | – | – | – | – | – | – | – | – | OCCOCCOCCO [triethylene glycol] | –

More lines, now with the values behind:

SMILES | mass density [1] [kg/m3] | refractive index [2] | activity coefficient ([3]; 323.15 K, Chromatography) | activity coefficient ([3]; 333.15 K, Chromatography) | activity coefficient ([3]; 343.15 K, Chromatography) | activity coefficient ([3]; 353.15 K, Chromatography) | activity coefficient ([3]; 363.15 K, Chromatography) | activity coefficient ([3]; 373.1 K, Chromatography) | activity coefficient ([3]; 383.15 K, Chromatography) | activity coefficient ([3]; 393.15 K, Chromatography) | other results
CCCCCCCCCC [decane] | 730.2 ± 5 | 1.4113 ± 0.0007 | – | – | – | – | – | – | – | – | –
CCCCCCCCCC [decane] + OCCOCCOCCO | – | – | 252 ± 12 | 219 ± 10 | 196 ± 9.3 | 162 ± 7.6 | 141 ± 6.6 | 125 ± 5.9 | 107 ± 5 | 95.6 ± 4.5 | –
CCCCCCCCCC [decane] + OCCOCCOCCOCCO | – | – | – | 123 ± 5.8 | – | 87.8 ± 4.1 | 75.1 ± 3.5 | 64.4 ± 3 | 55.2 ± 2.6 | 51.3 ± 2.4 | activity coefficient ([3]; 403.15 K, Chromatography): 42.9 ± 2
CCCCCCC [heptane] | 683.5 ± 5 | 1.3878 ± 0.0007 | – | – | – | – | – | – | – | – | –
CCCCCCC [heptane] + OCCOCCOCCO | – | – | 93.3 ± 4.4 | 82.7 ± 3.9 | 71.9 ± 3.4 | 62.7 ± 2.9 | 55.3 ± 2.6 | 50.2 ± 2.3 | 44.3 ± 2.1 | 40.6 ± 1.9 | –
CCCCCCC [heptane] + OCCOCCOCCOCCO | – | – | – | 50.2 ± 2.3 | – | 37.6 ± 1.7 | 32.1 ± 1.5 | 29.8 ± 1.4 | 26.1 ± 1.2 | 23.1 ± 1.1 | activity coefficient ([3]; 403.15 K, Chromatography): 20.8 ± 0.96
CCCCCCCCC [nonane] | 717.8 ± 5 | 1.4057 ± 0.0007 | – | – | – | – | – | – | – | – | –
CCCCCCCCC [nonane] + OCCOCCOCCO | – | – | 183 ± 8.6 | 156 ± 7.4 | 140 ± 6.6 | 119 ± 5.6 | 103 ± 4.8 | 93 ± 4.4 | 81.4 ± 3.8 | 73.9 ± 3.5 | –
CCCCCCCCC [nonane] + OCCOCCOCCOCCO | – | – | – | 92.3 ± 4.3 | – | 64.7 ± 3 | 57.4 ± 2.7 | 49.3 ± 2.3 | 42.9 ± 2 | 39.7 ± 1.8 | activity coefficient ([3]; 403.15 K, Chromatography): 34.1 ± 1.6
CCCCCCCC [octane] | 702.6 ± 5 | 1.3975 ± 0.0007 | – | – | – | – | – | – | – | – | –
CCCCCCCC [octane] + OCCOCCOCCO | – | – | 129 ± 6.1 | 113 ± 5.3 | 99.5 ± 4.7 | 86.9 ± 4.1 | 75.8 ± 3.5 | 68.7 ± 3.2 | 60.5 ± 2.8 | 56.7 ± 2.6 | –
CCCCCCCC [octane] + OCCOCCOCCOCCO | – | – | – | – | – | – | – | – | – | – | activity coefficient ([3]; 333.15 K): 68.1 ± 6.4; activity coefficient ([3]; 353.15 K): 49.5 ± 4.6; activity coefficient ([3]; 363.15 K): 43.2 ± 4; activity coefficient ([3]; 373.1 K): 37.5 ± 3.5; activity coefficient ([3]; 383.15 K): 32.4 ± 3; activity coefficient ([3]; 393.15 K): 31.4 ± 2.9; activity coefficient ([3]; 403.15 K): 25.8 ± 2.4
Cc1ccccc1 [toluene] | 866.7 ± 5 | 1.4962 ± 0.0007 | – | – | – | – | – | – | – | – | –
Cc1ccccc1 [toluene] + OCCOCCOCCO | – | – | 7.11 ± 0.33 | 6.8 ± 0.31 | 6.51 ± 0.3 | 6.25 ± 0.29 | 5.99 ± 0.27 | 5.85 ± 0.27 | 5.56 ± 0.25 | 5.51 ± 0.25 | –
Cc1ccccc1 [toluene] + OCCOCCOCCOCCO | – | – | – | 4.5 ± 0.21 | – | 4.02 ± 0.18 | 3.85 ± 0.18 | 3.62 ± 0.16 | 3.46 ± 0.16 | 3.37 ± 0.15 | activity coefficient ([3]; 403.15 K, Chromatography): 3.21 ± 0.15
